Columns and labels:
[1] = test system: CD133 expression in a liver cancer cell line; test: CD133 expression (Western blotting) and CD133 ORF promoter luciferase activity after EGF treatment; format: cell-based
Description: After treatment with an inhibitor against an EGF downstream signaling molecule, CD133 expression was investigated. Specifically, for transfection and Western blotting, a specific gene (plasmid vector or siRNA) was expressed in cells using a transfection reagent. For general plasmid vector transfection, 24 hours after transfection, cells were harvested, and for siRNA transfection, 48 hours after transfection, cells were harvested. For Western blotting, the harvested cells were lysed in RIPA buffer, and centrifuged at 12,000 g for 20 minutes at 4° C., followed by collecting a supernatant. The collected supernatant was subjected to SDS-PAGE gel electrophoresis, and transferred onto a nitrocellulose membrane, followed by detecting the expression of a desired protein using suitable antibodies. As a result, it was observed that NF-κB is involved in EGF-induced CD133 expression (FIG. 1B). […] Cells were simultaneously transfected with the luciferase vector and a Renilla plasmid vector for quantification. Twenty-four hours after transfection, the cells were treated with EGF for 14 hours, lysed with lysis buffer and centrifuged to obtain a supernatant, and then luciferase activity was measured using the Luminometer 20/20 (FIG. 1D).

[2] = test system: liver cancer cell line; test: Microscopic analysis of microvesicle and TNT formation (WGA-488/DAPI staining, confocal); format: cell-based
Description: The relationship between EGF and microvesicle and TNT formation was investigated by microscopic analysis. Specifically, after 14 hours of EGF treatment, cells were fixed with 4% paraformaldeyde and treated with WGA-488 and DAPI for 10 minutes to stain the cell membrane and nucleus. Fluorescence intensity was measured using an LSM700 Meta confocal microscope.

EGF: epithelial growth factor (EGF)
CD133 expression regulation [1]: activates NF-κB and regulates CD133 expression at the transcription level | microvesicle and TNT formation between cells [2]: microvesicle and TNT formation increases between cells
